The results in this text go back to US20260364138A1, “ENRICHED ASPARAGUS RACEMOSUS ROOT COMPOSITION AND PROCESS FOR PREPARATION THEREOF” (LAILA NUTRA PRIVATE LIMITED, priority 2023, published 2026).

Test [1] concerns Cyclophosphamide-induced primary ovarian insufficiency in Sprague Dawley rats. As to the kind of experiment: Cyclophosphamide-induced primary ovarian insufficiency in female Sprague Dawley rats, total follicular count. The note with it: rat, in vivo. How it is done: Evaluation of Asparagus racemosus enriched extract compositions supplementation on total follicular count of female Sprague Dawley rats: Ovarian follicles contain oocytes and surrounded by granulosa cells. Four different types of follicles are observed in ovaries based on their development stages: primordial, primary, secondary, and tertiary (antral). The number of primordial follicles, which is the true ovarian reserve, is determined in the fetus and declines throughout life. However, the primordial follicles cannot be visualized by ultrasound due to their small size (<0.05 mm diameter). The antral or Graafian follicles are more easily identifiable by ultrasound when they reach 2 mm in diameter. It is recommended that a follicular count needs to be performed in the early follicular phase of the menstrual cycle. However, considering the intracycle fluctuation of ovarian reserve, a follicular count may be performed at any point in the menstrual cycle. […]
Example 28: In-vivo efficacy of AR-1 and Comp-1 in mitigating Cyclophosphamide-induced primary ovarian insufficiency in Sprague Dawley rats. […] Twenty randomly selected fields were analysed for primordial, primary, antral, […], and atretic follicles, and the average of total number of follicles present in each tissue section was calculated.

Test [2] relates to Letrozole-induced PCOS in female Sprague Dawley rats. The test is described as follows: Oral glucose tolerance test (OGTT) in letrozole-induced PCOS rats. The class given is in vivo. The note with it: mean ± SD, n = 7, 20 mg/kg daily days 22-48 after letrozole induction, letrozole group 1 mg/kg without test item, day 49. An excerpt:
Evaluation of Asparagus racemosus synergistic enriched extract compositions (comp-26, comp-27, comp-28 and 90% aqueous ethanol extract (AR-2) supplementation in letrozole-induced PCOS in female Sprague Dawley rats: Oral glucose tolerance test (OGTT): OGTT measures circulatory glucose levels following glucose ingestion, and this test is widely used as an indicator of insulin resistance. PCOS is known to cause metabolic dysfunctions, including insulin resistance. Letrozole-induced rats show impaired glucose tolerance and increased blood glucose in circulation, which closely mimics the clinical features of glucose intolerance or insulin resistance in PCOS.
Area Under the Curve (AUC) was calculated using serum glucose concentration Vs. time (in min). The AUC value was increased in letrozole-induced (G2) rats when compared with the Vehicle control (G1) rats, indicating impaired glucose tolerance or increased insulin resistance.
(§1) Following a 7-day acclimatization period, female Sprague Dawley rats (age: 10-12 weeks, body weight 250-300 g) were randomly assigned to six groups (n=7): vehicle control (G1), Letrozole (G2; 1 mg/kg), AR-2 (G3; 20 mg/kg), Comp-26 (G4; 20 mg/kg), Comp-27 (G5; 20 mg/kg), and Comp-28 (G6; 20 mg/kg).
The study was performed in two phases i.e., the induction and supplementation phases. […]

Test [3] shares this test system. The test is described as follows: Serum 17β-estradiol in letrozole-induced PCOS rats. The class given is in vivo. The note with it: mean ± SD, n = 7; 20 mg/kg daily after letrozole induction; letrozole group 1 mg/kg; day 48. How it is done: as §1
(§2) The study was performed in two phases i.e., the induction and supplementation phases. In the induction phase, all the animals, except for G1, were gavaged with letrozole to induce PCOS for 21 days. In the supplementation phase (from days 22 to 48), all rats were supplemented once daily with either the vehicle or one of the test items. An oral glucose tolerance test (OGTT) was performed on day 49 in overnight fasted rats. Blood samples were collected on day 48. The serum was separated by centrifuging the blood samples at 3200×g for 15 minutes at 4 °C and stored at −80 °C in aliquots for biomarker analysis. On day 50, all rats were euthanized using CO2 asphyxiation, and their ovaries were collected. The ovaries were fixed in 10% normal buffered formalin for histopathology examination. The fixed tissues were paraffin-embedded, sectioned (5-7 μm) using a microtome, and stained with hematoxylin-eosin following the standard protocols. The stained tissue sections were examined at 10× magnification under a light microscope (Carl Zeiss, Germany).

Test [4] has the same test system. The test is described as follows: Serum testosterone in letrozole-induced PCOS rats. The class given is in vivo. The note with it: mean ± SD, n = 7; 20 mg/kg daily after letrozole induction; letrozole group 1 mg/kg; day 48. As for the experimental part: as §1, §2
The test system of test [5] is estrogen receptor alpha phosphorylated at Serine 118 position (pER-α). As to the kind of experiment: Evaluation of estrogen-receptor alpha (ER-α) phosphorylation by Western blot assay (normalized pER-α expression) in MCF-7 cells. The class given is cell-based, Human. The note with it: 0.2 μg/mL, MCF-7, 4 h; for pER-α expression (normalized): Table 3 (vehicle control 0.28); for activation at 0.2 µg/mL: Homo sapiens, MCF7, read-out: % increase of pER-α (from vehicle control). As for the experimental part: The four compounds of Asparagus racemosus root Shatavarin I, dehydroshatavarin I, shatavarin IV, and shatavarin IX, and their combinations were evaluated for their ability to enhance the pER-α (estrogen receptor alpha phosphorylated at Serine 118 position) expression in a human breast tumor cell line, MCF-7, and the results are presented in Table 3. pER-α represents the active form of the hormone receptor.
Human MCF-7 cells (ATCC Cat #HTB-22; 5×10^5 cells/well in 3 mL) were seeded in 6-well cell culture plates and maintained in DMEM medium containing 10% FBS at 37 °C in a humidified atmosphere of 5% CO2. After 48 hours of seeding, cells were washed twice with serum-free DMEM medium (without phenol red) and maintained in the same media for another 24 hours. Cells were treated with different test samples (0.2 μg/mL) in serum-free DMEM medium and incubated for 4 hours at 37 °C in a CO2 incubator. The untreated cells served as a vehicle control.
Western blot: After the incubation, cell culture plates were placed on an ice tray and washed twice with cold 1×PBS. Eighty microliters of lysis buffer (10 mM Tris-HCl pH 7.4, 150 mM NaCl, 1 mM EDTA, 1 mM [COMPOUND LEFT OUT], 10 μg/mL Aprotinin, 10 μg/mL Leupeptin, 1% Triton X-100, 1 mM NaF, 1 mM Na3VO4, 0.5% Sodium deoxycholate, and 1 μM Pepstatin) was added to each well and sonicated for 30 seconds. Following homogenization, samples were centrifuged at 16128×g for 10 minutes at 4 °C to sediment unbroken cells and nuclei. Supernatant was collected, and protein was quantified using a Pierce BCA protein assay kit (Thermo Scientific Cat #23225). SDS-PAGE was performed for the protein samples, and resolved proteins were transferred onto nitrocellulose membrane using the wet blotting method. Briefly, 10 μg of protein was loaded onto acrylamide gel (7.5% resolving) and ran at 100V for approximately 1 hour 40 minutes. At the end of the run, proteins were transferred to the nitrocellulose membrane by placing transfer system at 4 °C chamber (100V for 2 hours). After the transfer, the membrane was washed in 0.1M Tris-buffered saline containing 0.05% Tween20 (TBST) and blocked in Superblock blocking buffer (Thermo Scientific Cat #37535) with constant agitation for 30 minutes. The membrane was incubated with primary antibodies recognizing phospho-ER-α (Phosphorylation site: Ser118) in TBST for 16 hours at 4 °C with agitation. The membrane was washed three times and incubated with peroxidase affiniPure goat anti-rabbit secondary antibody (Jackson ImmunoResearch Cat #111-035-045; 1:10000 dilution) for 1 hour at room temperature with agitation, followed by three times of washing in TBST for 5 minutes each. Immunoreactive bands were detected using a chemiluminescent substrate (Thermo Scientific Cat #34080) and images were captured using Bio-Rad Molecular imager (Model: ChemiDOC MP). Membrane was stripped of the phospho-ER-α antibody and re-probed with […] antibody (Sigma Chemical Co., USA; 1:10000 dilution) by incubating at room temperature for 2 hours and images were captured. The intensities of phospho-ER-α and actin protein bands were calculated using Carestream MI software and normalized. The normalized pER-α expression (in arbitrary units) was measured using the following formula: […]
Background: In western blotting, separated proteins are transferred to a membrane and probed.

As for `O=P1(N(CCCl)CCCl)NCCCO1` (stereo not shown) [Cyclophosphamide], in test [1], the “Average total follicular count” value amounted to 5.63 per section.

Take `N#Cc1ccc(C(c2ccc(C#N)cc2)n2cncn2)cc1` [Letrozole]: the “AUC (serum glucose, OGTT)” value in test [2] was 21030 ± 4007 mg/dL/min; in test [2] (listed as letrozole), “increased”. In addition, the “17β-Estradiol concentration (serum)” value in test [3] is reported as 32.97 ± 13.89 pg/mL. Further, the “Testosterone concentration (serum)” value in test [4] came to 3.18 ± 1.16 pg/mL.

As to `CC1CCC2(OC1)OC1CC3C4CCC5CC(OC6OC(CO)C(OC7OC(C)C(O)C(O)C7O)C(O)C6OC6OC(CO)C(O)C(O)C6O)CCC5(C)C4CCC3(C)C1C2C` (stereo not shown) [Shatavarin IV], the “pER-α expression (normalized)” value in test [5] worked out at 0.40 arbitrary units. In test [5] (markers, Table 3), the activation at 0.2 µg/mL is 42.9%.

Regarding `CC1CCC2(OC1)OC1CC3C4CCC5CC(OC6OC(CO)C(OC7OC(CO)C(O)C(O)C7O)C(O)C6OC6OC(CO)C(O)C(O)C6O)CCC5(C)C4CCC3(C)C1C2C` (stereo not shown) [Shatavarin IX], the “pER-α expression (normalized)” value in test [5] was 0.38 arbitrary units. In test [5] (markers, Table 3), the activation at 0.2 µg/mL worked out at 35.7%.

As to `CC(CCC1(O)OC2CC3C4CCC5CC(OC6OC(CO)C(OC7OC(C)C(O)C(O)C7O)C(O)C6OC6OC(CO)C(O)C(O)C6O)CCC5(C)C4CCC3(C)C2C1C)COC1OC(CO)C(O)C(O)C1O` (stereo not shown) [Shatavarin I], the “pER-α expression (normalized)” value in test [5] is 0.34 arbitrary units. Also, in test [5] (markers, Table 3), the activation at 0.2 µg/mL worked out at 21.4%.

On to dehydroshatavarin I, for which, in test [5], the “pER-α expression (normalized)” value came to 0.45 arbitrary units. The “% increase of pER-α (from vehicle control)” value in test [5] (markers, Table 3) was 60.71%.
